From ChEMBL document CHEMBL5325500, “Mannich Base PIP-199 Is a Chemically Unstable Pan-Assay Interference Compound” (J Med Chem, 2023)
Values belong to the compound of their own block, whether it stands above or below them. Active and inactive are the calls of the source. The calls are words filed in the database; no cut-off is given here.

What was measured:
Homo sapiens [1] = species on record: Homo sapiens; assay: Binding affinity to biotinylated RMI1/RMI2 (unknown origin) at 12.5 to 200 uM associated for 60 secs and dissociated for 60 secs by SPR analysis; conditions: dose 12.5-200 µM, time 120.0 sec
Homo sapiens [2] = species on record: Homo sapiens; assay: Displacement of N-terminal TAMRA-labeled SRDLFSVTFDLGFCSPDSDD-NH2 tracer from RMI1/RMI2 (unknown origin) in 50 mM Tris buffer pH 8.8 at 125 uM incubated for 1 hr by fluorescence polarization assay
[3] = Stability in potassium phosphate buffer at pH 6 to 8 assessed as drug degradation at 250 uM measured after 1.5 hrs by 1H-NMR analysis; format: physicochemical; conditions: pH 6, 1.5 h
[4] = Stability of compound in H2O/MeCN with 0.1% formic acid assessed as elimination of piperazine at 250 uM measured after 1.5 hrs by LC-MS analysis; format: physicochemical
[5] = Stability of compound in H2O/MeCN with 0.1% formic acid assessed as formation of 2-phenyl-3-(pyridin-2-ylmethylene)-3H-indole 1-oxide by measuring retention time at 250 uM measured after 1.5 hrs by LC-MS analysis; format: physicochemical
[6] = Stability of compound in H2O/MeCN with 0.1% formic acid assessed as formation of 2-phenyl-3-(pyridin-2-ylmethylene)indoline-1,2-diol by measuring retention time at 250 uM measured after 1.5 hrs by LC-MS analysis; format: physicochemical
[7] = Stability of compound in H2O/MeCN with 0.1% formic acid assessed as isomer of nitrone formation by measuring retention time at 250 uM measured after 1.5 hrs by LC-MS analysis; format: physicochemical
[8] = Stability of compound in phosphate buffer at pH 7 to 8 assessed as formation of 2-phenyl-3-(pyridin-2-ylmethylene)-3H-indole 1-oxide at 50 uM measured every 0.1 secs for 3 mins by UV-Vis spectroscopy; format: physicochemical; conditions: pH 7, 2.778e-05 h, time 0.1 sec
[9] = Stability of compound in 50 mM phosphate buffer at pH 6 to 8 assessed as drug decomposition at 250 uM measured after 1.5 hrs by NMR analysis; format: physicochemical; conditions: pH 6, 1.5 h
[10] = Stability of compound in 10 mM Tris buffer at pH 8.8 assessed as drug decomposition at 250 uM measured after 1.5 hrs by NMR analysis; format: physicochemical; conditions: pH 8.8, 1.5 h
[11] = Stability of compound in 10 to 50 mM HEPES buffer at pH 7.4 assessed as drug decomposition at 250 uM measured after 1.5 hrs by NMR analysis; format: physicochemical; conditions: pH 7.4, 1.5 h
[12] = Stability of compound in 50 mM Tris buffer at pH 8.8 assessed as drug decomposition at 250 uM measured after 1.5 hrs by NMR analysis; format: physicochemical; conditions: pH 8.8, 1.5 h
[13] = Stability of compound in 10 to 50 mM NH4Cl buffer at pH 8.8 assessed as drug decomposition at 250 uM measured after 1.5 hrs by NMR analysis; format: physicochemical; conditions: pH 8.8, 1.5 h
Homo sapiens [14] = species on record: Homo sapiens; assay: Displacement of N-terminal TAMRA-labeled SRDLFSVTFDLGFCSPDSDD-NH2 tracer from RMI1/RMI2 (unknown origin) in 10 mM Tris buffer pH 8.8 at 125 uM incubated for 1 hr by fluorescence polarization assay
[15] = Solubility of compound assessed as precipitation at >250 uM; format: physicochemical
[16] = Stability in phosphate buffer at pH 7 to 8 assessed as drug degradation at 250 uM measured after 1.5 hrs by 1H-NMR analysis; format: physicochemical; conditions: pH 7, 1.5 h
[17] = Stability in phosphate buffer at pH 6 assessed as drug degradation at 250 uM measured after 1.5 hrs by 1H-NMR analysis; format: physicochemical; conditions: read-out: Drug degradation
[18] = Stability of compound in H2O/MeCN with 0.1% formic acid assessed as (2-phenyl-1H-indol-3-yl)(pyridin-2-yl)methanol formation by measuring retention time at 250 uM measured after 1.5 hrs by LC-MS analysis; format: physicochemical
[19] = Stability of compound in H2O/MeCN with 0.1% formic acid assessed as retention time of intact compound at 250 uM measured after 1.5 hrs by LC-MS analysis; format: physicochemical

Activity (Homo sapiens [1]): inactive | Activity (Homo sapiens [2]): inactive
SMILES: c1ccc(-c2[nH]c3ccccc3c2C(c2ccccn2)N2CCCCC2)cc1 (stereo not drawn)

Activity (Homo sapiens [2]): inactive
SMILES: CCOC(=O)N1CCN(C(c2ccccc2)c2c(-c3ccccc3)[nH]c3ccccc23)CC1 (stereo not drawn)

Stability [3]: Unstable | Stability [4]: Unstable | Retention_time [5]: 11.4 min | Retention_time [6]: 8.2 min | Retention_time [7]: 9.5 min | Stability [8]: Unstable | Stability [9]: Unstable | Stability [10]: Unstable | Stability [11]: Unstable | Stability [12]: Stable | Stability [13]: Unstable | Activity (Homo sapiens [1]): inactive | Activity (Homo sapiens [14]): inactive | Activity (Homo sapiens [2]): inactive | solubility [15]: Insoluble
SMILES: CCOC(=O)N1CCN(C(c2ccccn2)c2c(-c3ccccc3)n(O)c3ccccc23)CC1 (stereo not drawn)

Continued, compound first:

SMILES: CCOC(=O)N1CCN(C(c2ccccn2)c2ccc3ccccc3c2O)CC1 (stereo not drawn)
Activity (Homo sapiens [1]): inactive | Activity (Homo sapiens [2]): inactive

SMILES: CCOC(=O)N1CCN(C(c2ccccn2)c2c(C)[nH]c3ccccc23)CC1 (stereo not drawn)
Activity (Homo sapiens [1]): inactive | Activity (Homo sapiens [2]): inactive

SMILES: CCOC(=O)N1CCN(C(c2ccccn2)c2c(-c3ccccc3)[nH]c3ccccc23)CC1 (stereo not drawn)
Stability [16]: Stable | degraded at 1.5 h, 250 µM [17]: 50% | Retention_time [18]: 7.3 min | Activity (Homo sapiens [1]): inactive | Retention_time [19]: 8.7 min | Activity (Homo sapiens [2]): inactive
